# Columns and labels:
# [1] = tested on: cysteine and lysine peptides; assay: Direct Peptide Reactivity Assay, mean of cysteine and lysine depletion (FIG. 12); conditions: for Sensitizing potential predicted from mean peptide depletion: cysteine 1:10 / lysine 1:50 model
# Description: Direct reactivity of test chemical to lysine-based synthetic peptide was determined in reactions containing 100 mM ammonium acetate buffer (pH 10.2). The final concentration of lysine peptide was 20 μM in a final reaction volume of 0.3 ml. Direct reactivity of test chemicals to cysteine-based synthetic peptide was determined in 100 mM Sodium Phosphate buffer of pH 7.5.
# For the DPRA, incubation mixtures were prepared using each peptide to test compound ratios of both 1:10 for cysteine peptide and 1:50 for lysine peptide, according to Table 19. […] Sample reactions were initiated by adding 3 μl of a test chemical stock solution for cysteine and 15 μl stock solution for lysine peptide. These mixtures were then placed in a temperature-controlled shaking incubator at 25° C.
# At each time point (20 mins/24 hours), the incubation mixtures were quenched with 75 μL of 95% ACN/H2O, and mildly vortexed (600 rpm, 3 seconds). For Lysine DPRA experiment, 10 μl of aliquot was diluted with 2% ACN/H2O, vortexed and stored at −80° C. until analysis by LC-MS/MS. For cysteine DPRA, an additional step was performed. 10 μl of cysteine reaction mixture, at time points 20 min and 24 h were diluted in 180 μl of 2% ACN/H2O. To which, a 10 μl aliquot of a 16 mM dithiothreitol solution (prepared in water) was then added, and samples were heated in a 45° C. oven for 30 min, then allowed to cool to room temperature prior to analysis. The peptide depletion (PD) percentage was obtained using this equation.
# [2] = tested on: HaCaT cells; assay: In vitro cell cytotoxicity (MTT) assay on HaCaT cells; format: cell-based, human
# Text: HaCaT (human, adult, low calcium, high temperature, human adult skin keratinocytes) cells were obtained from the IMB (Institute of Medical Biology) Skin Cell Bank. Fetal bovine serum (FBS), Dulbecco's minimum essential medium (DMEM) and trypsin EDTA solution were purchased from GE healthcare life sciences, Utah. Penicillin/streptomycin, dimethyl sulfoxide (DMSO), and phosphate buffered saline (PBS) were from Fisher Scientific (Singapore). Para-phenylenediamine (PPD) was purchased from Sigma Aldrich (Singapore). PPD analogues such as Dimer, trimer, ethyl hexyl para-phenylenediamine (EHPPD), hexyl para-phenylenediamine (HPPD), Bandrowski base (BB) were synthesized in house.
# Cell viability was essentially determined using the MTT assay as described in the literature. The HaCaT cells were grown in DMEM with 10% FBS and 1% penicillin/streptomycin. The cells in T-75 cm^2 culture flasks were incubated with 5% CO2 at 37° C. in a humidified incubator. The HaCaT cells were grown to expected confluency and then they were harvested by trypsinizing the cell with 0.25% trypsin/EDTA and incubated at 37° C. for 5 min to obtain the complete cell detachment. After the incubation, cell pellets were resuspended, and washed twice with 1×PBS. The cell suspension in 1×PBS was counted and adjusted to 1×10^5/mL. A HaCaT keratinocyte suspension (100 μL in 1×PBS) with a cell concentration of 1×10^5 cells/mL) and a test solution (100 μL in milli-Q water) were combined in each well of two 96-well plates. Test solutions with a desired concentration were prepared by serial dilutions of the stock solutions with 1×PBS.
# For the cytotoxicity experiment, cells were seeded at a density of 5×10^3 in 200 ul of medium into each well of 96-well plates. Cells were seeded as three sets of four replicates for each concentration. After 24 h of incubation, the cells were washed with PBS and cultured for 72 h with 200 ul of 10% FBS containing DMEM medium, together with the different concentrations of the test compounds ranging from 500 μM to 1.9 μM for PPD and analogues 1-5 and standard in a serial dilution. Then the medium was removed and 100 μl of MTT [3-(4,5-dimethylthiazol-2yl)-2,5-diphenyl-2H-tetrazolium bromide](1 mg/ml) (Alfa Aesar, Singapore) in PBS was added. At the end of 4 h incubation, the plates were removed from the incubator and plates were shaken for 5 min. The absorbance at 570 nm was determined using Bio-Tek plate reader. The cell viability rates were calculated from absorbance readings and represented as percentages of control value (untreated cells).
# [3] = tested on: cysteine peptide (Ac-RFAACAA-COOH); assay: Direct Peptide Reactivity Assay, cysteine peptide; conditions: for % of Cysteine depletion, Avg / % of Cysteine depletion, Rep 2 / % of Cysteine depletion, Rep 3 / Reactivity Class: 1:10; for % of Cysteine depletion, Rep 1: peptide 0.02 mM : test chemical 0.2 mM (1:10); for Reactivity Class: cysteine
# Description: For cysteine DPRA, an additional step was performed.
# (§1) The mass spectrometric analysis was performed by use of a AB SCIEX QTRAP 5500 tandem mass spectrometry (MS/MS) system (AB SCIEX, Framingham, Mass., USA) operating in triple quadrupole positive mode (ESI+) equipped with an AB Sciex Turbo Ion Spray interface. Acquisition and analysis of data were performed with Analyst software ver. 1.6.2 (Applied Biosystems).
# [4] = tested on: lysine peptide (Ac-RFAAKAA-COOH); assay: Direct Peptide Reactivity Assay, lysine peptide; conditions: for % of Lysine depletion, Avg / % of Lysine depletion, Rep 2 / % of Lysine depletion, Rep 3 / Reactivity Class: 1:50; for % of Lysine depletion, Rep 1: peptide 0.02 mM : test chemical 1 mM (1:50); for Reactivity Class: lysine
# Description: as §1
# [5] = Skin permeation in vertical Franz diffusion cells; format: in vitro ADME, porcine; conditions: 8 h; for Skin permeation (in words): porcine skin
# Description: Porcine ears were generously provided by the NUS Department of Surgery. The ears were frozen at −80° C. until use (up to 3 months) and thawed at room temperature on the day preceding the experiment. Prior to the experiment, the skin was separated from the cartilage and dermatomed to a thickness of ˜1.0 mm using an Acculan™ 3Ti dermatome (Aesculap, Inc., B. Braun, USA).
# The PPD and derivatives were dissolved in deionized water at 1% w/v. The PPD and PPD derivatives 1-5 solutions were purged with argon gas to minimize oxidation of the donor solution.
# Skin penetration studies were carried out using vertical Franz diffusion cells (PermeGear, USA) immersed in a 37° C. water bath. The donor and receptor volumes were 900 µL and 5 mL, respectively; the mean surface area of penetration was 0.64 cm^2. Upon insertion of the skin pieces into the Franz cells, the skin was equilibrated for 45 min with PBS in the receptor compartment. After equilibration, the skin's trans-epidermal water loss (TEWL) was measured using an Aquaflux AF300 (Biox, UK) to assess the integrity of the skin's stratum corneum barrier. The donor solution, consisting of PPD or derivative 1-5 (n=3 Franz cells each), was then added to the donor compartment and the penetration experiments were conducted for 8 h. The receptor solutions were continuously stirred with magnetic stirrers. At fixed time points, aliquots of 200 μL were taken from the receptor solution of each cell and the receptor solution topped up with 200 μL of fresh PBS. At the end of the experiment, the donor and receptor solutions were removed and the cells dismantled. For the purpose of mass balance on the PPD, PPD derivatives 1-5 the skin pieces and swabs of their outer surfaces were collected and stored in acetonitrile for PPD or derivative 1-5 extraction. The donor solution as well as PBS used to thoroughly wash each part of the Franz cells were also collected.
# PPD, PPD derivatives 1-5 and metabolite concentrations in all permeation and mass balance samples were measured by LCMS. PPD steady state fluxes and permeability coefficients were calculated by fitting the solution to Fick's second law of diffusion at the steady state to the linear part of each experimental cumulative amount curve.
# The validated method LCMS was applied to quantify PPD, PPD derivative 1-5 and metabolites from skin permeation study samples. FIGS. 3 and 4 show LCMS spectra for the identification of PPD and PPD derivatives 1 and 2 and metabolites from skin permeation study experiment.
# [6] = Homo sapiens, HaCaT, 72 h, 72 h incubation, MTT
smiles,measurement,setting,value
"Cc1ccc(NCc2ccc(Nc3ccc(Nc4ccc(N)cc4)cc3)cc2)cc1 [PPD derivative 10, N^1-[4-(4-tolylaminomethyl)phenyl]-N^4-(4-aminophenyl)-1,4-benzenediamine]",Sensitizing potential predicted from mean peptide depletion,[1],weak sensitizer
same,Mean peptide depletion,"[1]; mean of cysteine (1:10) and lysine (1:50), FIG. 12",23.0%
same,IC50,[2]; [6],1.8 µM
COc1ccc(CNc2ccc(Nc3ccc(NCc4ccc(OC)cc4)cc3)cc2)cc1 [PPD derivative 12],IC50,[2]; [6],4.3 µM
"CCC(C)(C)C(=O)O[C@H]1C[C@@H](C)C=C2C=C[C@H](C)[C@H](CC[C@@H]3C[C@@H](O)CC(=O)O3)[C@H]21 [Simvastatin, reference compound]",IC50,"[2]; Homo sapiens, HaCaT",9.15 µM
same,IC50,[2]; [6],28.6 µM
"Cc1ccc(CNc2ccc(Nc3ccc(NCc4ccc(C)cc4)cc3)cc2)cc1 [PPD derivative 13, N^4-(p-tolylmethyl)-N^1-[4-(p-tolylmethylamino)phenyl]benzene-1,4-diamine]",IC50,[2]; [6],5.2 µM
"CC(C)(C)c1cc(O)ccc1O [Tertbutylhydroquinone, reference compound]",IC50,[2]; [6],27.9 µM
"CCOC(=O)/C=C\C(=O)OCC [Diethylmaleate, reference compound]",IC50,[2]; [6],> 100 µM
"OC[C@H]1O[C@@H](O[C@H]2[C@H](O)[C@@H](O)C(O)O[C@@H]2CO)[C@H](O)[C@@H](O)[C@H]1O (stereo partly shown) [Lactose, reference compound]","% of Cysteine depletion, Avg",[3]; 20 min,0%
same,"% of Cysteine depletion, Rep 2",[3]; 20 min,0%
same,"% of Cysteine depletion, Rep 3",[3]; 20 min,0%
same,"% of Cysteine depletion, Rep 1",[3]; 20 min,0%
same,"% of Cysteine depletion, Avg",[3]; 24 h,0.6%
same,"% of Cysteine depletion, Rep 2",[3]; 24 h,1%
same,"% of Cysteine depletion, Rep 3",[3]; 24 h,1%
same,"% of Cysteine depletion, Rep 1",[3]; 24 h,0%
same,Reactivity Class,[3]; 20 min,No or Minimal
same,Reactivity Class,[3]; 24 h,No or Minimal
same,"% of Lysine depletion, Avg",[4]; 20 min,0%
same,"% of Lysine depletion, Rep 2",[4]; 20 min,0%
same,"% of Lysine depletion, Rep 3",[4]; 20 min,0%
same,"% of Lysine depletion, Rep 1",[4]; 20 min,0%
same,"% of Lysine depletion, Avg",[4]; 24 h,0%
same,"% of Lysine depletion, Rep 2",[4]; 24 h,0%
same,"% of Lysine depletion, Rep 3",[4]; 24 h,0%
same,"% of Lysine depletion, Rep 1",[4]; 24 h,0%
same,Reactivity Class,[4]; 20 min,No or Minimal
same,Reactivity Class,[4]; 24 h,No or Minimal
"COc1cccc2c1C(=O)c1c(O)c3c(c(O)c1C2=O)C[C@@](O)(C(=O)CO)C[C@@H]3O[C@H]1C[C@H](N)[C@H](O)[C@H](C)O1 [Doxorubicin, reference compound]",IC50,[2]; [6],< 0.39 µM
"CCCCCCNc1ccc(N)cc1OCCCCCC [PPD derivative 16, (N^1-hexyl)(2-hexyloxy)-1,4-diaminobenzene]",Sensitizing potential predicted from mean peptide depletion,[1],moderate sensitizer
same,IC50,"[2]; 72 h incubation, MTT",140 µM
"CCCCCCOc1cc(Nc2ccc(N)cc2)ccc1N [PPD derivative 5, 4-Amino-(3-hexyloxy)-4′-aminodiphenylamine]",% Parent compound Penetrated (mean),[5]; 1% W/V applied,0%
same,% Parent compound Recovery (mean),[5]; 1% W/V applied,98%
same,% converted to metabolite (mean),[5]; 1% W/V applied,0.0118%
same,Skin permeation (in words),[5],did not permeate the skin at all
same,Skin permeation (in words),[5]; listed as PPD 5,impermeable
same,"% of Cysteine depletion, Avg",[3]; 20 min,51.2%
same,"% of Cysteine depletion, Rep 2",[3]; 20 min,52.9%
same,"% of Cysteine depletion, Rep 3",[3]; 20 min,49.9%
same,"% of Cysteine depletion, Rep 1",[3]; 20 min,50.9%
same,"% of Cysteine depletion, Avg",[3]; 24 h,53.8%
same,"% of Cysteine depletion, Rep 2",[3]; 24 h,53.8%
same,"% of Cysteine depletion, Rep 3",[3]; 24 h,54.1%
same,"% of Cysteine depletion, Rep 1",[3]; 24 h,53.5%
same,IC50,"[2]; 72 h incubation, MTT",14.3 µM
same,"% of Lysine depletion, Avg",[4]; 20 min,6.3%
same,"% of Lysine depletion, Rep 2",[4]; 20 min,5.92%
same,"% of Lysine depletion, Rep 3",[4]; 20 min,6.2%
same,"% of Lysine depletion, Rep 1",[4]; 20 min,6.76%
same,"% of Lysine depletion, Avg",[4]; 24 h,14.3%
same,"% of Lysine depletion, Rep 2",[4]; 24 h,15.2%
same,"% of Lysine depletion, Rep 3",[4]; 24 h,13.8%
same,"% of Lysine depletion, Rep 1",[4]; 24 h,13.8%
same,Reactivity Class,[4]; 20 min,No or Minimal
same,Reactivity Class,[4]; 24 h,Low
"O=C1C=CC(=O)C=C1 [p-Benzoquinone, p-benzoquinone, reference compound]","% of Cysteine depletion, Avg",[3]; 20 min,72.8%
same,"% of Cysteine depletion, Rep 2",[3]; 20 min,73.7%
same,"% of Cysteine depletion, Rep 3",[3]; 20 min,72.0%
same,"% of Cysteine depletion, Rep 1",[3]; 20 min,72.7%
same,"% of Cysteine depletion, Avg",[3]; 24 h,89.7%
same,"% of Cysteine depletion, Rep 2",[3]; 24 h,89.5%
same,"% of Cysteine depletion, Rep 3",[3]; 24 h,90%
same,"% of Cysteine depletion, Rep 1",[3]; 24 h,89.6%
same,Reactivity Class,[3]; 20 min,High
same,Reactivity Class,[3]; 24 h,High
same,"% of Lysine depletion, Avg",[4]; 20 min,21.0%
same,"% of Lysine depletion, Rep 2",[4]; 20 min,20.6%
same,"% of Lysine depletion, Rep 3",[4]; 20 min,20%
same,"% of Lysine depletion, Rep 1",[4]; 20 min,22.5%
same,"% of Lysine depletion, Avg",[4]; 24 h,88.7%
same,"% of Lysine depletion, Rep 2",[4]; 24 h,87.5%
same,"% of Lysine depletion, Rep 3",[4]; 24 h,91.6%
same,"% of Lysine depletion, Rep 1",[4]; 24 h,87.0%
same,Reactivity Class,[4]; 20 min,Low
same,Reactivity Class,[4]; 24 h,High
"O=[N+]([O-])c1ccc(CNc2ccc(Nc3ccc(NCc4ccc([N+](=O)[O-])cc4)cc3)cc2)cc1 [PPD derivative 11, N^4-[(4-nitrophenyl)methyl]-N^1-[4-[(4-nitrophenyl)methylamino]phenyl]-benzene-1,4-diamine]",IC50,[2]; [6],6.4 µM
"Oc1ccc(CNc2ccc(Nc3ccc(NCc4ccc(O)cc4)cc3)cc2)cc1 [PPD derivative 14, 4-[[4-[4-[(4-hydroxyphenyl)methylamino]anilino]anilino]methyl]phenol]",IC50,[2]; [6],5.4 µM
"CC1=CC(=O)c2ccccc2C1=O [Menadione, reference compound]",IC50,[2]; [6],3.56 µM

# From US11129782B2, “Derivatives of PPD useful for coloring hair and skin” (National University of Singapore, priority 2017, dated 2021)
